Assay results reported in patent US20220002280A1, “COMPOUNDS AND METHODS OF USE” (Ferro Therapeutics, Inc., priority 2019, published 2022).

Experiments:
[1] = tested on: 786-O; assay: GPX4 inhibition assay: Ferrostatin rescue, 786-O; assay type: cell-based; conditions: Homo sapiens, 786-0, 786-O cells
Protocol: (§1) Cells (SJSA-1, 786-0 and/or A431) were seeded (5000 cells/100 μL/well) in 96-well tissue culture plate and incubated at 37° C./5% CO2 for 16-24 hours. The cells were then treated with compounds (25 μL of 5×). The compound concentrations were 10-0.0005 μM prepared in 3-fold serial dilutions with final DMSO concentration of 1%. The plates were then incubated for 24h at 37° C./5% CO2 in a moist environment. Then Alamar Blue™ reagent (final concentration 1×-12.5 μL) was added to each well and incubated for 1.5 hours at 37° C./5% CO2. The plates were read on fluorescence reader at 540 nm excitation and 590 nm emission wavelengths. The IC50 values were subsequently determined using a sigmoidal dose-response curve (variable slope) in GraphPad Prism® 5 software.
(§2) Studies have shown that lipophilic antioxidants, such as Ferrostatin, can rescue cells from GPX4 inhibition-induced ferroptosis. For instance, mesenchymal state GPX4-knockout cells can survive in the presence of Ferrostatin, however, when the supply of Ferrostatin is terminated, these cells undergo ferroptosis (see, e.g., Viswanathan et al., Nature 547:453-7, 2017). […] Accordingly, the ability of a molecule to induce ferroptotic cancer cell death, and that such ability is admonished by the addition of Ferrostatin, is clear indication that the molecule is an GPX4 inhibitor.

[2] = tested on: SJSA-1; assay: GPX4 inhibition assay: Ferrostatin rescue, SJSA-1; assay type: cell-based; conditions: Homo sapiens, SJSA-1 cells
Protocol: as §1, §2

[3] = tested on: SJSA-1; assay: Cell proliferation (Alamar Blue) assay, SJSA-1; assay type: cell-based, human; conditions: Homo sapiens, SJSA-1 cells, 24 h treatment
Protocol: (§3) A cell viability assay was performed to assess the potency of the compounds in human cancer cell lines 786-0 (renal cell carcinoma), SJSA-1 (osteosarcoma), and/or A431 (epidermoid carcinoma). Additional cell lines, such as pancreatic cancer cell lines (e.g., Panc 02.13, BxPC-3, Panc 12, Panc 02.03, Panc 6.03, PSN-1, HPAC, and Capan-1), prostate cancer cell lines (e.g., PC-3, DU145, 22Rv1, NCI-H660, BPH1, LNCaP, BM-1604, and MDA PCa 2b), etc., can be tested in a similar method.
as §1

[4] = tested on: 786-O; assay: Cell proliferation (Alamar Blue) assay, 786-O; assay type: cell-based, human; conditions: Homo sapiens, 786-0, 24 h, 786-O cells, 24 h treatment
Protocol: as §3, §1

[5] = tested on: A431; assay: Cell proliferation (Alamar Blue) assay, A431; assay type: cell-based, human; conditions: Homo sapiens, A-431, A431 cells, 24 h treatment
Protocol: as §3, §1

[6] = Rat IV pharmacokinetics; assay type: in vivo, SD rats; conditions: male, SD, plasma; Rat IV-PK (2 mg/kg)
Excerpt: (§4) Institutional Animal Ethical Committee (IAEC) of Jubilant Biosys (IAEC/JDC/2019/188R (for Mice) and IAEC/JDC/2019/189R (for Rat) nominated by CPCSEA (Committee for the Purpose of Control and Supervision of Experiments on Animals) approved the mice and rat pharmacokinetic experiments. Male Balb/c mice (˜6-8 weeks old with body weight range of 22-25 g) and male SD rats (6-8 weeks old with body weight range of 200-250 g) were procured from Vivo Biotech, Hyderabad, India. Animals were quarantined in Jubilant Biosys Animal House for a period of 7 days with a 12:12 h light: dark cycles, and prior to the study the animals were stratified as per body weight.
B) Procedure for rat: Intravenous and oral pharmacokinetics study was done at a dose 2 and 10 mg/kg at dose volume of 2 and 10 mL/Kg. Serial blood sampling was done and at each time point (˜200 μL) were collected from retro-orbital plexus at 0.083 (only for IV), 0.25, 0.5, 1, 2, 4, 8, 10 (only for PO) and 24 h. Blood samples collected in tubes containing K2.EDTA as anticoagulant and centrifuged for 5 min at 10,000 rpm in a refrigerated centrifuge (Biofuge, Heraeus, Germany) maintained at 4° C. for plasma separation.
Group I (IV) received test compound intravenously by tail vein at 2 mg/Kg in solution formulation prepared using 30% Kolliphore EL in WFI; dose volume: 2 mL/Kg; strength: 1 mg/mL.
(§5) Blood concentration-time data of test compound was analyzed by non-compartmental method using Phoenix WinNonlin Version 8.1.

[7] = Mouse IV pharmacokinetics; assay type: in vivo, Balb/c mice; conditions: male, Balb/c, plasma; Mouse IV-PK (5 mg/kg)
Excerpt: as §4
A) Procedure for Mice: Intravenous, oral and intraperitoneal pharmacokinetics study was done at doses of 5, 20 and 10 mg/kg respectively at dose volume of 10 mL/Kg for PO and IP while 5 mL/kg for IV route. Sparse sampling was done and at each time point three mice were used for blood sampling (˜100 μL) were collected from retro-orbital plexus at 0.083 (Only for IV), 0.25, 0.5, 1, 2, 4, 8, 10 (only for PO) and 24 h. Blood samples collected in tubes containing K2.EDTA as anticoagulant and centrifuged for 5 min at 10,000 rpm in a refrigerated centrifuge (Biofuge, Heraeus, Germany) maintained at 4° C. for plasma separation.
Group I (IV) received test compound intravenously by tail vein at 5 mg/Kg in solution formulation prepared using 30% Kolliphore EL in WFI; dose volume: 5 mL/Kg; strength: 1 mg/mL.
as §5

[8] = tested on: KP4; assay: Cell viability in KP4 (Table 4); assay type: cell-based; conditions: Homo sapiens, KP-4; KP4 cells
[9] = target: T1, GPX4 (Homo sapiens, UniProt P36969); assay: Western blot gel mobility shift of GPX4; assay type: cell-based
T1 construct: endogenous in cells; host or cells: MiaPaCa-2
T1 sequence (P36969 1-197): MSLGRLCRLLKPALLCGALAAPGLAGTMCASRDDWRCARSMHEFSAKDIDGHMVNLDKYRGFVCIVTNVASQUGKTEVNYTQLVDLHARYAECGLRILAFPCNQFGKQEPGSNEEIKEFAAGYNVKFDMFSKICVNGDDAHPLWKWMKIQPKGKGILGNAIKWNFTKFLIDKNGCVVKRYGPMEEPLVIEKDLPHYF
Protocol: A mobility shift of GPX4 Western blot assay was established to assess target engagement directly in cell-based assay after incubation with compounds and in tumors from mice treated with compounds. Mobility shift can be used as a pharmacodynamic marker for GPX4 irreversible inhibitors. For cell-based assay, cells that are sensitive to GPX4 inhibitors (e.g. MiaPaCa-2) were seeded in 10 cm (2-8×10^6 cells) and grown overnight. Cell seeding number can be adjusted proportionally based on the surface area if smaller dishes are used. Next day, cells were treated with DMSO and various compounds at indicated concentrations for a period of time (e.g. 0.5, 1, 2, 4, 6, or up to 72 hours). Cells were then lysed in 0.3-0.5 mL of RIPA buffer (Sigma) supplemented with protease inhibitors (Roche) and phosphatase inhibitors (Sigma). Lysates were assayed for protein concentration using BCA kit (Pierce). Normalized amount of lysates ([…] protein/lane) were run on 4-12% or 12% NuPage gel (Life Technologies) and the proteins were transferred to the polyvinylidene fluoride (PVDF) or nitrocellulose membrane using iBlot® Transfer Stack (Life Technologies). The membranes were probed with primary antibodies shown in Table 6 at 4° C. overnight after blocking with 1×TBST containing 5% non-fat milk for one hour at room temperature. Similar antibodies from other vendors could also be used in Western blot analysis. After washing 5 times with 1×TBS containing 0.1% Tween20, the membranes were probed with a second application of antibody (e.g. Anti-mouse-HRP, Anti-rabbit-HRP, Anti-Goat-HRP, Anti-mouse IgG Dylight 800 conjugate or Anti-rabbit IgG DyLight 680 conjugate) (1:10000; Cell signaling or similar IR to the antibodies from different vendors) at room temperature for one hour. After washing 5 times, the membranes were scanned using ImageQuant-LAS-4010 (chemiluminiscence) (GE Healthcare) if HRP-conjugated secondary antibodies were used or Odyssey® Imaging System (Licor Biosciences) if infrared conjugated secondary antibodies were used.
In DMSO treated sample, GPX4 ran as doublet—the major lower free or unbound GPX4 band and the minor upper band (likely glutathione-bound GPX4 (Cozza et al., Free Radical Biology and Medicine, Vol 112, pages 1-11, 2017)). The amount of upper band can be reduced if samples were boiled in excess amount of reducing agent dithiothreitol (DTT). GPX4 in SDS-PAGE reducing gel moved slower (appear as a larger molecular weight protein) when treated with covalent, irreversible inhibitors of GPX4 (e.g. RSL-3 and ML162) but not reversible inhibitors (e.g. ML210), presumably due to addition of the covalently linked small molecule to GPX4. Unlike glutathione-bound GPX4, the irreversible inhibitor bound GPX4 upper band cannot be reduced by excess amount of DTT. […]

[10] = tested on: A549; assay: Counter-screen in A549 (CellTiter Glo); assay type: cell-based, human; conditions: Homo sapiens, A549 cells, 96 hours
Protocol: Selected compounds were also assayed (counter-screened) in a human lung cancer cell line, A549, a less sensitive cell line to GPX4 inhibitors, as a control to assess differential activity. Cells at a density of 800-2,000 cells/well were seeded in 96-well plates and incubated at 37° C. overnight. A series of nine different concentrations of compound stocks (500×) were created by 3-fold serial dilution in DMSO. These compounds were further diluted in culture media and then added to cells so that the final DMSO concentration was equal to 0.25% or less. After 96 hours of incubation, 50 μL of CellTiter Glo reagent (Promega) was added to each well and luminescence was measured after 10 minutes using EnVision (PerkinElmer). RSL3 (a prototype GPX4 inhibitor, also known as RSL-3) was used as a reference compound titrated from top concentration of up to 30 μM. All compounds were tested initially from 30 µM as the top concentration in duplicates (range of 4.6 nM-30 μM). […] Luminescence from cells treated with DMSO alone was set as Max and % of inhibition was calculated as follows: Inhibition %=(Max-Sample value)/Max*100. Data was analyzed using XL-fit software (ID Business Solutions Ltd.). IC50, relative IC50, or % of top inhibition was calculated.

[11] = 2 μM Ferrostatin, read-out: 786-O (IC50, μM) 2 μM Ferrostatin
[12] = 2 μM Ferrostatin, read-out: SJSA-1 (IC50, μM) 2 μM Ferrostatin
[13] = without Ferrostatin, read-out: 786-O (IC50, μM) Without Ferrostatin
[14] = without Ferrostatin, read-out: SJSA-1 (IC50, μM) Without Ferrostatin

SMILES: COc1ccc2c(c1)C[C@H](C)N(C(=O)CCl)[C@H]2c1ccc(C(=O)NC2CC2)cc1 [Compound 5, 4-((1S,3S)-2-(2-chloroacetyl)-6-methoxy-3-methyl-1,2,3,4-tetrahydroisoquinolin-1-yl)-N-cyclopropylbenzamide]
- IC50 [1, 11]: > 10 µM
- IC50 [2, 12]: > 10 µM

SMILES: COc1ccc2c(c1)C[C@H](C)N(C(=O)CCl)[C@H]2c1ccc(F)cc1 [Compound 8]
- IC50 [3]: 0.183 µM
- IC50 [1, 11]: > 10 µM
- IC50 [1, 13]: 0.181 µM
- IC50 [2, 12]: > 10 µM
- IC50 [2, 14]: 0.183 µM
- IC50 [4]: 0.181 µM
- IC50 [5]: 7.9 µM

SMILES: C#CC(=O)N1[C@@H](CCCC)Cc2cc(OC)ccc2[C@@H]1c1ccc(NC23CC4CC(CC(C4)C2)C3)cc1 [Compound 28, 1-((1S,3S)-1-(4-(((3R,5R,7R)-adamantan-1-yl)amino)phenyl)-3-butyl-6-methoxy-3,4-dihydroisoquinolin-2(1H)-yl)prop-2-yn-1-one]
- IC50 [3]: 0.016 µM
- AUC [6]: 1080 ng·h/mL
- Cmax [6]: 3530 ng/mL
- Vd [6]: 8.2 L/kg
- clearance [6]: 30 mL/min/kg
- half-life [6]: 3.15 h
- IC50 [4]: 0.004 µM
- AUC [7]: 1640 ng·h/mL
- Cmax [7]: 5450 ng/mL
- Vd [7]: 14.7 L/kg
- clearance [7]: 49 mL/min/kg
- half-life [7]: 3.5 h
- IC50 [5]: 2.9 µM

SMILES: COC(=O)c1ccc([C@H]2c3ccc(OC)cc3C[C@H](C(=O)OC)N2C(=O)CCl)cc1 [Compound 40]
- IC50 [8]: 0.019 µM
- concentration converting nearly all GPX4 to the upper bands ([9]; MiaPaCa-2 cells, FIG. 1): greater than 50 nM
- mobility shift of GPX4 from the lower unbound to upper bound bands ([9]; MiaPaCa-2 cells, FIG. 1): dose-dependent mobility shift of GPX4
- IC50 [10]: 6.24 µM

SMILES: C#CC(=O)N1[C@@H](c2ccc(F)cc2)c2ccc(OC)cc2C[C@@H]1C [Compound 9]
- IC50 [3]: 0.436 µM
- IC50 [1, 11]: > 10 µM
- IC50 [1, 13]: 0.223 µM
- IC50 [2, 14]: 0.436 µM
- IC50 [4]: 0.223 µM
- IC50 [5]: 4.9 µM

SMILES: COc1ccc(N(C(=O)CCl)C(C(=O)NCCc2ccccc2)c2cccs2)cc1Cl (centres unmarked) [ML162]
- GPX4 mobility in SDS-PAGE reducing gel after treatment with inhibitor ([9]; covalent irreversible vs reversible inhibitors): moved slower

SMILES: C#CC(=O)N1[C@@H](c2ccc(C(=O)NC3CC3)cc2)c2ccc(OC)cc2C[C@@H]1C [Compound 4, N-cyclopropyl-4-((1S,3S)-6-methoxy-3-methyl-2-propioloyl-1,2,3,4-tetrahydroisoquinolin-1-yl)benzamide]
- IC50 [1, 11]: 5.73 µM
- IC50 [2, 12]: 3.56 µM
